Data: patent US20250145715A1, “B7-H3 TARGETING FUSION PROTEINS AND METHODS OF USE THEREOF” (GT Biopharma, Inc., priority 2021, published 2025)
Entries after “also recorded” stand apart in the source; their conditions may differ.

What was measured:
[1] = tested on: myeloma cells (RPMI-8226, U266, MM1S, H929); experiment: IncuCyte Zoom NK cell killing of myeloma cells; assay type: cell-based, human
Description: (§1) FIGS. 7A-7B illustrate the ability of peripheral blood NK cells with or without B7-H3-TriKE to kill myeloma cells in live imaging IncuCyte Zoom assays. FIG. 7A is a graph showing the effects with effector:target (E:T) ratios of 2:1 and 4:1 on MM1S cells. FIG. 7B is a graph showing the effects with effector:target (E:T) ratios of 2:1 and 4:1 on U266 cells.
as §1, with “8A-8D” for “7A-7B”, “8A is a graph showing the effects with effector:target (E:T) ratios of 2:1 and 4:1 on H929 cells. FIG. 8B” for “7A”, “8C is a graph showing the effects with effector:target (E:T) ratios of 2:1 and 4:1 on RPMI-8226 cells. FIG. 8D” for “7B”
The ability of peripheral blood NK cells with or without B7-H3-TriKE to kill myeloma cells was compared in live imaging IncuCyte Zoom assays with escalating doses of TriKE. Maximal killing occurred with 3 nM concentration.

prostate cancer cells = experiment: NK cell function against prostate cancer cells (flow cytometry); assay type: cell-based, human
Description: FIG. 13A is a graph showing percent of NK cells expressing IFNγ against prostate cancer cell targets. FIG. 13B is a graph illustrating the proportion of NK cells undergoing 3 or more rounds of division.
ADCC was measured in a flow cytometry assay by evaluating degranulation via CD107a (lysosomal-associated membrane protein LAMP-1) and intracellular IFNγ production. Upon thawing, normal donor and patient-derived PBMCs or ascites cells were rested overnight (37° C., 5% CO2) in RPMI 1640 media supplemented with 10% fetal calf serum (RPMI-10). The next morning, they were suspended with tumor-target cells or media after washing twice with RPMI-10. Cells were then incubated with TriKEs or controls for 10 min at 37° C. Fluorescein isothiocyate (FITC)-conjugated anti-human CD107a monoclonal antibody (BD Biosciences, San Jose, CA, USA) was then added. Following an hour 37° C. incubation, GolgiStop (1:1500, BD Biosciences) and GolgiPlug (1:1000, BD Biosciences) were added for 3 h. After washing with phosphate buffered saline, the cells were stained with PE/Cy 7-conjugated anti-CD56 mAb, APC/Cy 7-conjugated anti-CD16 mAb, and PE-CF594-conjugated anti-CD3 mAb (BioLegend, San Diego, CA, USA). Cells were incubated for 15 min at 4° C., washed, and fixed with 2% paraformaldehyde. Cells were then permeabilized using an intracellular perm buffer (BioLegend) to evaluate production of IFNγ through detection via aBV650 conjugated anti-human IFNγ antibody (BioLegend). Samples were washed and evaluated in an LSRII flow cytometer (BD Biosciences, San Jose, CA, USA).
As illustrated in FIGS. 12A-12D, 14A-14L and 15A-15D cam1615B7-H3 TriKE targets prostate cancer. The ability of the cam1615B7-H3 TriKE to improve NK cell activity against prostate cancer was tested. All of the prostate cancer cell lines tested expressed B7-H3. For these tests, normal donor PBMCs and PBMCs obtained from metastatic prostate cancer patients were used.

[2] = tested on: ovarian cancer cell lines; experiment: NK cell activation against ovarian cancer lines vs K562 / Raji; assay type: cell-based
Description: ADCC was measured in a flow cytometry assay by evaluating degranulation via CD107a (lysosomal-associated membrane protein LAMP-1) and intracellular IFNγ production. Upon thawing, normal donor and patient-derived PBMCs or ascites cells were rested overnight (37° C., 5% CO2) in RPMI 1640 media supplemented with 10% fetal calf serum (RPMI-10). The next morning, they were suspended with tumor-target cells or media after washing twice with RPMI-10. Cells were then incubated with TriKEs or controls for 10 min at 37° C. Fluorescein isothiocyate (FITC)-conjugated anti-human CD107a monoclonal antibody (BD Biosciences, San Jose, CA, USA) was then added. […] Samples were washed and evaluated in an LSRII flow cytometer (BD Biosciences, San Jose, CA, USA).
The ability of cam1615B7-H3 TriKE to mediate NK cell activity against ovarian cancer cells was evaluated. […] In order to determine if the individual components of the TriKE could induce NK cell activity on their own, the individual cam16 VHH, IL-15, or anti-B7-H3 scFv components were incubated with PBMCs and OVCAR8 cells and activity was determined. […] NK cell activity, from normal donor PBMCs and ascites from the peritoneal cavity of ovarian cancer patients at the time of surgery, was assessed against MA-148 cells, another high-grade serous ovarian adenocarcinoma cell line (FIGS. 29A-29B and 30G-30H). […]

[3] = Toxicity assessment, weights of NSG mice engrafted with NK cells; assay type: in vivo; conditions: irradiated NSG mice, 1 million NK cells, treated three weeks, weights tracked 90 days
Description: As illustrated in FIGS. 32A-32F, cam1615B7-H3 TriKE mediates anti-tumor activity in vivo. Determination of in vivo activity is a critical step for translation. However, prior to evaluating the ability of the cam1615B7-H3 TriKE to induce function against tumor the potential for toxicity was assessed. To do this NSG mice were irradiated, engrafted with 1 million NK cells, treated with nothing, IL-15, or cam1615B7-H3 for three weeks, and weights were tracked over the course of 90 days post initial treatment. […] This is not surprising given the low toxicity profile of IL-15 and the safety profile of B7-H3. […] In this model, human NK cells and human high grade serous MA-148-luc cells are injected into the peritoneal cavity of NSG mice.

Substance	NK cell mediated killing of myeloma lines ([1]; 3 nM B7-H3-TriKE, all four myeloma lines)	TriKE concentration giving maximal killing ([1]; escalating doses of TriKE, peripheral blood NK cells) [nM]	NK function (IFNγ) against prostate cancer cell targets vs IL-15 alone (prostate cancer cells; compared to IL-15 alone)	B7-H3 specificity of the signal (prostate cancer cells; with prostate cancer cells)	TriKE-induced signal vs natural cytotoxicity signal (prostate cancer cells; with prostate cancer cells)	IFNγ production against ovarian cancer vs K562 natural cytotoxicity signal ([2]; K562 in the absence of TriKE)	fold NK cell activation (PBMC+Tumor+TriKE divided by PBMC+TriKE alone) ([2]; all ovarian cancer cell lines vs Raji)	body weight vs controls [3]
B7-H3 TriKE: camelid nanobodies targeting CD16 and B7-H3 joined by IL-15 and two linkers; sequence table equates the name with cam1615B7-H3	statistically significant increase; also recorded: significantly enhanced NK cell mediated killing of myeloma cells	3	–	–	–	–	–	–
cam1615B7-H3: second-generation TriKE: humanized camelid anti-CD16 VHH, human wild-type IL-15, anti-B7-H3 mAb 376.96 scFv; SEQ ID NO:1	–	–	more potent at inducing NK function than IL-15 alone	specific to B7-H3	stronger than that induced by a strong natural cytotoxicity signal	stronger IFNγ production	higher than activation by the B7-H3-negative Raji line	no significant differences
